Measurements from patent US4007267A, “Antibiotic B-98891” (priority 1974, dated 1977).
In brackets after ≈: the same amount, converted by molar mass. Entries after “also recorded” stand apart in the source; their conditions may differ.

Legend:
[1] = system: Saccharomyces cerevisiae IFO-0209; experiment: Antimicrobial spectrum (in vitro), agar dilution and diffusion methods; type: cell-based; details: medium A, 28 °C, time 40
[2] = system: certain gram-positive bacteria, gram-negative bacteria, phytopathogenic fungi and certain yeasts; experiment: Antimicrobial spectrum, summary; type: cell-based; details: in vitro
Protocol: (§1) The antimicrobial spectrum of the antibiotic B-98891 as measured by the agar dilution and diffusion methods is shown in Table 3. The "diameter of inhibition zone" in the table represents the diameter of the inhibition zone formed around a paper disc(7 mm. in diameter) immersed in a 5000 μg/ml. solution of the present antibiotic.

[3] = system: Trichophyton mentagrophytes IFO-5809; experiment: Antimicrobial spectrum (in vitro), agar dilution and diffusion methods; type: cell-based; details: medium D, 28 °C, time 88
Protocol: as §1

[4] = system: Japanese killifish; experiment: Fish toxicity test; type: in vivo; details: 20 ppm, 7 days observation
[5] = system: Penicillium expansum IFO-7813; experiment: Antimicrobial spectrum (in vitro), agar dilution and diffusion methods; type: cell-based; details: medium A, 28 °C, time 40
[6] = system: Penicillium chrysogenum IFO-4626; experiment: as above; type: cell-based; details: medium A, 28 °C, time 40
[7] = Acute toxicity in mice
[8] = system: powdery mildew of barley; experiment: Control test of powdery mildew of barley (pots); type: in vivo, Erysiphe graminis
[9] = system: Candida albicans IFO-0583; experiment: Antimicrobial spectrum (in vitro), agar dilution and diffusion methods; type: cell-based; details: medium A, 28 °C, time 40
[10] = system: powdery mildew of tobacco plant; experiment: Control test of powdery mildew of tobacco plant
Protocol: (§4) The control chemical was also similarly diluted with water.
Tobacco plants (Nicotiana tabacum L. f. MC) grown in pots, with the fourth mature leaf sufficiently unfolded, were prepared in a green-house, two pots per group, for this test. To encourage the onset of the disease, the pots of diseased plants were placed next to the test pots for spontaneous infection. The fungicidal solutions were prepared in the same manner as Test Example 1 and sprayed onto the test plants in two divided doses, each in sufficient volume, at intervals of 10 days. The percent area of the lesion was investigated 9 days and 15 days, respectively, after the last application.

[11] = system: powdery mildew of pepper; experiment: Control test of powdery mildew of pepper
Protocol: as §4
The reverse sides of unfolded leaves of pot-grown pepper plants (9 to 10-leaf stage, Capsicum annuum L. f. California Wonder) were inoculated, by dusting, with the pathogenic fungi from infected leaves. Two days later, the leaves were sprayed with adequate volume of test solutions as in Test Example 1. Then, the plants were grown and cared in a green-house and, after timed intervals, the percent area of fungal growth was determined. This test was performed in duplicate for each group.

[12] = system: Bacillus subtilis IFO-3513; experiment: Antimicrobial spectrum (in vitro), agar dilution and diffusion methods; type: cell-based; details: medium B, 37 °C, time 20
Protocol: as §1
(§2) B 0.5 % ehrlich's meat extract, 0.5 % polypeptone, 0.5 % NaCl, 1.5 % agar (pH 7)

[13] = system: Escherichia coli IFO-3044; experiment: as above; type: cell-based; details: medium B, 37 °C, time 20
Protocol: as §1, §2

[14] = system: Pseudomonas aeruginosa IFO-3080; experiment: as above; type: cell-based; details: medium B, 37 °C, time 20
Protocol: as §1, §2

[15] = system: Proteus vulgaris IFO-3045; experiment: as above; type: cell-based; details: medium B, 37 °C, time 20
Protocol: as §1, §2

[16] = system: Staphylococcus aureus IFO-3061; experiment: as above; type: cell-based; details: medium B, 37 °C, time 20
Protocol: as §1, §2

[17] = system: Rhodotorula rubra IFO-0870; experiment: as above; type: cell-based; details: medium A, 28 °C, time 40
[18] = Acute toxicity in rats
[19] = system: Botrytis cinerea TKF-12; experiment: Antimicrobial spectrum (in vitro), agar dilution and diffusion methods; type: cell-based; details: medium A, 20 °C, time 88
Protocol: as §1
(§3) A 3.0 % sucrose, 0.2 % L-asparagine, 0.3 % NH4 NO3, 0.1 % KH2 PO4, 0.1 % MgSO4.7H2 O, 0.001 % versenol (manufactured by Dow Chemical Co.; an iron chelate compound; content of iron-sodium ethanol ethylene diamine triacetate is 57.04 %), 1.5 % agar (pH 7) Before use, the following vitamins are added to the medium to the indicated final concentrations. 1 μg/ml. thiamine, 1 μg/ml. riboflavin, 1 μg/ml. calcium pantothenate, 1 μg/ml. niacin, 0.005 μg/ml. biotin, 0.5 μg/ml. folic acid, 2 μg/ml. pyridoxine hydrochloride, 0.5 μg/ml. p-aminobenzoic acid, 0.0002 μg/ml. cyanocobalamin

[20] = system: Guignardia laricina IFO-7888; experiment: as above; type: cell-based; details: medium A, 28 °C, time 88
Protocol: as §1, §3

[21] = system: powdery mildew of rose; experiment: Control test of the powdery mildew of rose (Super Star); type: in vivo
Protocol: For this test, rose (Rosa spp.) plants were grown in pots at a green-house.As test plants (forma species: Super Star and Arlene Francis) were used in groups of 3 pots per treatment. […] The number of diseased leaflets on three branches per pot was investigated 7 days after the third application and the percentage of diseased leaflets relative to the total number of leaflets investigated was calculated.

[22] = system: Erysiphe graminis; experiment: Activity against powdery mildew of barley (seedlings in test tubes); details: for Percent area of lesion: 18 °C, 7 days
Protocol: The unfolded leaves were inoculated with conidia of Erysiphe graminis using a small brush and each stock was kept in a test tube at 18° C for 7 days. The percent area of the resultant lesion was calculated to determine the effect of the test drug.

[23] = system: powdery mildew of oak tree; experiment: Control test of powdery mildew of oak tree
Protocol: as §4
This test was conducted with shoots of naturally grown oak (Quercus glauca Thunb.) trees about 10 years old. The fungicidal solutions prepared in the same manner as Test Example 1 were applied in mists.
The old mature leaves had already been severely diseased and, therefore, spontaneous infection of young leaves on the shoots was expected.
The number of treated leaves was 50 per group. The percent area of the lesion on treated leaves was investigated at 7 days after the treatment.

[24] = system: Cochliobolus miyabeanus IFO-5277; experiment: Antimicrobial spectrum (in vitro), agar dilution and diffusion methods; type: cell-based; details: medium A, 28 °C, time 40
[25] = system: Aspergillus niger IFO-4066; experiment: as above; type: cell-based; details: medium A, 28 °C, time 40

NC(N)=NCC(O)CC(O)(C(=O)O)[C@H]1O[C@@H](n2cc(CO)c(N)nc2=O)C=C[C@@H]1NC(=O)[C@@H](N)CO (stereo partly drawn) [B-98891]
Minimal inhibitory concentration [1]: > 500 µg/mL | Diameter of inhibition zone ([1]; paper disc 7 mm, 5000 μg/ml): 12 mm | antimicrobial activity [2]: weakly active | Minimal inhibitory concentration [3]: 500 µg/mL (≈ 972 µM) | fish toxicity [4]: no toxic effect; also recorded: substantially harmless to fish | Minimal inhibitory concentration [5]: 100 µg/mL (≈ 194 µM) | Diameter of inhibition zone ([5]; paper disc 7 mm, 5000 μg/ml): 25 mm | Minimal inhibitory concentration [6]: > 500 µg/mL | Diameter of inhibition zone ([6]; paper disc 7 mm, 5000 μg/ml): 13 mm | toxicity in mice (summary) [7]: mild | LD50 ([7]; intravenous): > 500 mg/kg | LD50 ([7]; oral): > 2000 mg/kg | Percent area of lesions ([8]; 15.6 ppm, 6th leaf, A: 10 days after first application): 0.4% | Percent area of lesions ([8]; 15.6 ppm, 6th leaf, B: 10 days after second application): 2.1% | Percent area of lesions ([8]; 15.6 ppm, 6th leaf, C: 10 days after third application): 0.8% | Percent area of lesions ([8]; 15.6 ppm, 9th leaf, B: 10 days after second application): 2.3% | Percent area of lesions ([8]; 15.6 ppm, 9th leaf, C: 10 days after third application): 10.5% | Percent area of lesions ([8]; 31.2 ppm, 6th leaf, A: 10 days after first application): 0.3% | Percent area of lesions ([8]; 31.2 ppm, 6th leaf, B: 10 days after second application): 2.0% | Percent area of lesions ([8]; 31.2 ppm, 6th leaf, C: 10 days after third application): 1.3% | Percent area of lesions ([8]; 31.2 ppm, 9th leaf, B: 10 days after second application): 0.3% | Percent area of lesions ([8]; 31.2 ppm, 9th leaf, C: 10 days after third application): 1.3% | Percent area of lesions ([8]; 62.5 ppm, 6th leaf, A: 10 days after first application): 0.1% | Percent area of lesions ([8]; 62.5 ppm, 6th leaf, B: 10 days after second application): 0.1% | Percent area of lesions ([8]; 62.5 ppm, 6th leaf, C: 10 days after third application): 0% | Percent area of lesions ([8]; 62.5 ppm, 9th leaf, B: 10 days after second application): 0.5% | Percent area of lesions ([8]; 62.5 ppm, 9th leaf, C: 10 days after third application): 0.4% | Minimal inhibitory concentration [9]: > 500 µg/mL | Percent area of lesion ([10]; 40 ppm, 9 days): 11.6% | Percent area of lesion ([10]; 40 ppm, 15 days): 20.4% | Percent area of lesion ([10]; 80 ppm, 9 days): 10.0% | Percent area of lesion ([10]; 80 ppm, 15 days): 13.2% | Percent area of lesion ([10]; 160 ppm, 9 days): 6.0% | Percent area of lesion ([10]; 160 ppm, 15 days): 8.5% | Percent area of the lesion ([11]; 80 ppm, 7 days): 7.9% | Percent area of the lesion ([11]; 80 ppm, 10 days): 10.3% | Percent area of the lesion ([11]; 160 ppm, 7 days): 5.0% | Percent area of the lesion ([11]; 160 ppm, 10 days): 4.6% | Minimal inhibitory concentration [12]: > 500 µg/mL | Diameter of inhibition zone ([12]; paper disc 7 mm, 5000 μg/ml): 14 mm | Minimal inhibitory concentration [13]: 500 µg/mL (≈ 972 µM) | Diameter of inhibition zone ([13]; paper disc 7 mm, 5000 μg/ml): 14 mm | Minimal inhibitory concentration [14]: > 500 µg/mL | Minimal inhibitory concentration [15]: > 500 µg/mL | Diameter of inhibition zone ([15]; paper disc 7 mm, 5000 μg/ml): 11 mm | Minimal inhibitory concentration [16]: > 500 µg/mL | Diameter of inhibition zone ([16]; paper disc 7 mm, 5000 μg/ml): 10 mm | Minimal inhibitory concentration [17]: 50 µg/mL (≈ 97.2 µM) | Diameter of inhibition zone ([17]; paper disc 7 mm, 5000 μg/ml): 80 mm | toxicity in rats (summary) [18]: mild | LD50 ([18]; intravenous): > 500 mg/kg | LD50 ([18]; oral): > 2000 mg/kg | Minimal inhibitory concentration [19]: 250 µg/mL (≈ 486 µM) | Diameter of inhibition zone ([19]; paper disc 7 mm, 5000 μg/ml): 15 mm | Minimal inhibitory concentration [20]: 100 µg/mL (≈ 194 µM) | Diameter of inhibition zone ([20]; paper disc 7 mm, 5000 μg/ml): 18 mm | Percent of diseased leaflet ([21]; 40 ppm): 5.6% | Percent of diseased leaflet ([21]; 80 ppm): 3.2% | Percent of diseased leaflet ([21]; 160 ppm): 2.6% | Percent area of lesion ([22]; 3.12 ppm): 40% | Percent area of lesion ([22]; 6.25 ppm): 26% | Percent area of lesion ([22]; 12.5 ppm): 0% | Percent area of lesion ([22]; 25 ppm): 0% | Percent area of lesion ([22]; 50 ppm): 0% | onset control activity ([22]; compared with the commercially available chemical (Benomyl wettable powder)): more potent onset control activity than the commercially available chemical | activity against the causative agent of powdery mildew of barley (Erysiphe graminis) (summary) ([22]; in vivo): characteristically high activity | Percent area of lesion ([23]; 40 ppm, 7 days): 8.3% | Percent area of lesion ([23]; 40 ppm, 14 days): 26.4% | Percent area of lesion ([23]; 80 ppm, 7 days): 1.1% | Percent area of lesion ([23]; 80 ppm, 14 days): 1.5% | Percent area of lesion ([23]; 160 ppm, 7 days): 0.6% | Percent area of lesion ([23]; 160 ppm, 14 days): 0.5% | Minimal inhibitory concentration [24]: > 500 µg/mL | Diameter of inhibition zone ([24]; paper disc 7 mm, 5000 μg/ml): 15 mm | Minimal inhibitory concentration [25]: > 500 µg/mL
